The structures appear in SMILES notation.

In one series the target is T1, PKC-alpha (Homo sapiens, UniProt P17252).
T1 construct: Both enzymes were full length human recombinant protein expressed in insect cells; purchased Invitrogen AG, Basel, Switzerland; host or cells: insect cells
The series can be described thus: Protein kinase C alpha assay (Caliper mobility shift). Format: biochemical. The conditions noted are these: full length human recombinant enzyme, 17 μM ATP; read-out: PKCα (IC50 in nM). The protocol:
(§1) The compounds of the invention were tested for their activity on different PKC isotypes according to the following method. All assays were performed in 384 well microtiter plates. Each assay plate contained 8-point serial dilutions for 40 test compounds, as well as two 16-point serial dilutions of staurosporine as reference compound, plus 16 high- and 16 low controls. Liquid handling and incubation steps were done on a automated workstation equipped with a Innovadyne Nanodrop Express.
(§2) The assay plates were prepared by addition of 50 nL per well of compound solution in 90% DMSO. The kinase reactions were started by stepwise addition of 4.5 μl per well of a 2× peptide/ATP-solution and 4.5 μl per well of a 2× enzyme solution. The final concentration of reagents during kinase reaction were: 50 mM HEPES, pH 7.5, 1 mM DTT, 0.02% Tween20, 0.02% BSA, 0.6% DMSO, 10 mM beta-glycerophosphate, and 10 μM sodium orthovanadate. The peptide substrate used in the PKC-alpha and PKC-theta assays was Dy495-X5-ME-Mpr-RFARKGSLRQKNV-COOH. […]
(§3) Plates with terminated kinase reactions were transferred to the Caliper LC3000 workstations for reading. Phosphorylated and unphosphorylated peptides were separated using the Caliper microfluidic mobility shift technology and Kinase activities were calculated from the amounts of formed phospho-peptide.

Series [1] in a line: Dog pharmacokinetics after oral administration of compound of example No. 1. Format: in vivo, Beagle dogs. As for the experimental part: A single dose of the compound of example 1 (3.0 mg/kg) was administered p.o. to 3 male Beagle dogs. Compound 1 was dosed as an aqueous suspension of the crystalline monohydrate form in Methylcellulose (0.5%): Tween 80 (1%) (90:10). Blood was taken in regular intervals by venipuncture, and the samples were analyzed for a period of up to 24 hours. The compounds of the examples 1, 2, and 3 were quantitatively assessed over time, and the results are tabulated below:
Key pharmacokinetic parameters (mean values±standard deviations (n=3) for 1, 2 and 3 after oral dosing of example No. 1.

In another series the target is T2, PKC-theta (Homo sapiens, UniProt Q04759).
T2 construct: Both enzymes were full length human recombinant protein expressed in insect cells; purchased Invitrogen AG, Basel, Switzerland; host or cells: insect cells
Kind of series: Protein kinase C theta assay (Caliper mobility shift). Format: biochemical. The following applies: full length human recombinant enzyme, 70 μM ATP; read-out: PKCθ (IC50 in nM). As for the experimental part: as §1, §2, §3

Series [2] can be described thus: Stability in gastric and intestinal simulated fluids at 37° C. Format: physicochemical. The protocol: Stability Assessments Stability of Cpd. Example No. 1 in Gastric and Intestinal Simulated Fluids at 37° C.:
Stability of compound Example No. 3
(Free form/acetate salt form) in gastric and intestinal simulated fluids at 37° C.: […]

Series [3] is described as follows: Chemical stability of amorphous and crystalline solid. Format: physicochemical. The conditions noted are these: 1 week.
Setting [4] is: dog, blood, po, male Beagle dogs, example 1 3.0 mg/kg p.o.

T2 sequence (Q04759 whole entry): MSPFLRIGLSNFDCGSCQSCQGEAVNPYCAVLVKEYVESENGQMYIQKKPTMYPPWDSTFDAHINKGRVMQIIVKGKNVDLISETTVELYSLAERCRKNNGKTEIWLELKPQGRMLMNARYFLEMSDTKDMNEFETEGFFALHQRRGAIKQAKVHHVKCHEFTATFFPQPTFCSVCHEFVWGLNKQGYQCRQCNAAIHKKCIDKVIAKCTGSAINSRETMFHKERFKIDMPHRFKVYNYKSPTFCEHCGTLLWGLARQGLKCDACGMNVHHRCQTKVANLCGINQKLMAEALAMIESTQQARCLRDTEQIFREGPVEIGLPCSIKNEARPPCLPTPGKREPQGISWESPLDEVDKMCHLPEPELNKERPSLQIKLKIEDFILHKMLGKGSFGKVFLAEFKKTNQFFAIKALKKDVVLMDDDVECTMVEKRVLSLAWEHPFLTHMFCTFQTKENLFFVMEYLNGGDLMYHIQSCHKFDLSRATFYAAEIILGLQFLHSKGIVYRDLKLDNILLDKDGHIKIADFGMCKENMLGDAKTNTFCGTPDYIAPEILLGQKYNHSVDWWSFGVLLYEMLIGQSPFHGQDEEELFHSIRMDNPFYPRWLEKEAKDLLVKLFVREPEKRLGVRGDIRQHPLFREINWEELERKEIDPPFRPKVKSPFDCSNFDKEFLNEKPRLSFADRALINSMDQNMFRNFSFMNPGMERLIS

`Cc1cccc2c(C3=C(c4nc(N5CCNC6(CC6)C5)cc5ccccc45)C(=O)N(COP(=O)(O)O)C3=O)c[nH]c12` [Example 1, Phosphoric acid mono-[3-[3-(4,7-diaza-spiro[2.5]oct-7-yl)-isoquinolin-1-yl]-4-(7-methyl-1H-indol-3-yl)-2,5-dioxo-2,5-dihydro-pyrrol-1-ylmethyl]ester]: the IC50 on PKC-alpha was 1680 nM; at PKC-theta, 462 nM. For the same compound, the “Conversion of prodrug into parent compound in blood” value in series [1] (after administration, example 3 is main component in blood after around an hour) is “is converted into compound of example 3”. In series [1] (setting [4]), this compound came in with a concentration at 0.25 h of 3.1 nM. This compound registered a concentration at 0.5 h in series [1] (setting [4]) of 1.1 nM. The “Amount in Area % of compound example No. 1” value in series [2] (FaSSIF pH 6.5, 37° C., 0 hours) is on record as 95.1 Area %; in series [2] (FaSSIF pH 6.5, 37° C., 1 hours), 93.8 Area %; in series [2] (FaSSIF pH 6.5, 37° C., 2.5 hours), 92.3 Area %; in series [2] (FaSSIF pH 6.5, 37° C., 4.2 hours), 90.5 Area %; in series [2] (FaSSIF pH 6.5, 37° C., 7 hours) it was 87.7 Area %; in series [2] (FeSSIF pH 5.8, 37° C., 0 hours), 95.0 Area %. The “Amount in Area % of compound example No. 1” value in series [2] (FeSSIF pH 5.8, 37° C., 1 hours) is 94.9 Area %; in series [2] (FeSSIF pH 5.8, 37° C., 2.5 hours) it was 94.8 Area %; in series [2] (FeSSIF pH 5.8, 37° C., 4.2 hours), 94.8 Area %; in series [2] (FeSSIF pH 5.8, 37° C., 7 hours), 94.8 Area %; in series [2] (SGF pH 2, 37° C., 0 hours), 95.9 Area %; in series [2] (SGF pH 2, 37° C., 1 hours), 95.5 Area %. Moreover, the “Amount in Area % of compound example No. 1” value is 95.3 Area % in series [2] (SGF pH 2, 37° C., 2.5 hours); 95.6 Area % in series [2] (SGF pH 2, 37° C., 4.2 hours); 95.6 Area % in series [2] (SGF pH 2, 37° C., 7 hours). The Purity after exposure came to 95.8% in series [3] (Amorphous, initial purity 98.5 %, 50 ° C.); 89.7% in series [3] (Amorphous, initial purity 98.5 %, 80 ° C.); 100% in series [3] (Crystalline mono-hydrate, initial purity 100 %, 50 ° C.); 100% in series [3] (Crystalline mono-hydrate, initial purity 100 %, 80 ° C.).

`Cc1cccc2c(C3=C(c4nc(N5CCNC6(CC6)C5)cc5ccccc45)C(=O)N(CO)C3=O)c[nH]c12` [Example 2, 3-[3-(4,7-Diaza-spiro[2.5]oct-7-yl)-isoquinolin-1-yl]-1-hydroxymethyl-4-(7-methyl-1H-indol-3-yl)-pyrrole-2,5-dione] yielded a concentration at 0.083 h in series [1] (dog, blood, po, male Beagle dogs, example 1 3.0 mg/kg p.o. (crystalline monohydrate suspension), 0.083 h) of 10 nM. In series [1] (setting [4]), the concentration at 0.25 h turned out to be 39.6 nM and the concentration at 0.5 h was determined as 31.3 nM. This compound also displayed a concentration at 0.75 h in series [1] (dog, blood, po, male Beagle dogs, example 1 3.0 mg/kg p.o., 0.75 h) of 19.1 nM. Besides, the concentration at 1 h in series [1] (dog, blood, po, male Beagle dogs, example 1 3.0 mg/kg p.o., 1 h) amounted to 6.3 nM. The compound also displayed a concentration at 2 h in series [1] (dog, blood, po, male Beagle dogs, example 1 3.0 mg/kg p.o., 2 h) of 7.7 nM. This compound gave a concentration at 3 h in series [1] (dog, blood, po, male Beagle dogs, example 1 3.0 mg/kg p.o., 3 h) of 1 nM. Besides, the AUC d.n. entry in series [1] (dose normalized, mean ± SD (n=3), after oral dosing of example No. 1 to dogs) was “low”. Also, in series [1] (male, Beagle, dog, blood, 3 mg/kg, mean ± SD (n=3), after oral dosing of example No. 1 to dogs), the Tmax came to 24 ± 6 min.

The values above are taken from patent US9029396B2, “Substituted indole derivatives” (Novartis AG, priority 2011, dated 2015).
